Measured values: patent US9976141B2, “Compositions and methods for inhibiting gene expression of Hif2alpha” (Arrowhead Madison Inc., priority 2015, dated 2018)
Values joined by “and” are separate entries in the source; they are usually repeats but may differ in a detail not shown here. Equal entries are not always repeated.

What was measured:
[1] = system: human (tumor) Hif2α (EPAS1) mRNA; experiment: Hif2α knockdown in orthotopic RCC tumor bearing mice, single injection of RNAi trigger-delivery polymer conjugate, RT-qPCR (Table 7); format: in vivo; conditions: single tail vein injection, relative to isotonic glucose
How it was run: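 A single intravenous dose of Hif2α RNAi trigger–delivery polymer conjugate, or isotonic glucose vehicle, was given to nude mice with subcapsular A498-SEAP renal tumours (about 5–6 weeks old). At the indicated time, tumour RNA was assayed by biplex TaqMan qPCR against CycA, and relative expression was calculated by ΔΔCT versus vehicle.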

[2] = system: human (tumor) Hif2α (EPAS1) mRNA; experiment: Hif2α expression in RCC tumor bearing mice after single injection of RGD targeted conjugates, 72 h, RT-qPCR (Table 11); format: in vivo
Procedure: Female athymic nude mice were anesthetized with ˜3% isoflourane and placed in the right lateral decubitus position. A small, 0.5-1 cm, longitudinally abdominal incision in the left flank was made. Using a moist cotton swab, the left kidney was lifted out of the peritoneum and gently stabilized. Just before injection, a 1.0 ml syringe was filled with the cell/Matrigel mixture and a 27 gauge needle catheter was attached to the syringe tip. The filled syringe was then attached to a syringe pump (Harvard Apparatus, model PHD2000) and primed to remove air. The tip of a 27-gauge needle catheter attached to a syringe was inserted just below the renal capsule near the caudal pole and the tip of the needle was then carefully advanced cranially along the capsule 3-4 mm. A 10 μl aliquot of 2:1 (vol:vol) cell/matrigel mixture containing about 300,000 cells was slowly injected into the kidney parenchyma using a syringe pump. The needle was left in the kidney for 15-20 seconds to ensure the injection was complete. The needle was then removed from the kidney and a cotton swab was placed over the injection site for 30 seconds to prevent leakage of the cells or bleeding. The kidney was then gently placed back into the abdomen and the abdominal wall was closed. Serum was collected every 7-14 days after implantation to monitor tumor growth using a commercial SEAP assay kit. For most studies, tumor mice were used 5-6 weeks after implantation, when tumor measurements were typically around 4-8 mm.
In preparation for quantitative PCR, total RNA was isolated from tissue samples homogenized in TriReagent (Molecular Research Center, Cincinnati, Ohio) following the manufacturer's protocol. Approximately 500 ng RNA was reverse-transcribed using the High Capacity cDNA Reverse Transcription Kit (Life Technologies). For human (tumor) Hif2α (EPAS1) expression, pre-manufactured TaqMan gene expression assays for human Hif2α (Catalog #4331182) and CycA (PPIA) Catalog #: 4326316E) were used in biplex reactions in triplicate using TaqMan Gene Expression Master Mix (Life Technologies) or VeriQuest Probe Master Mix (Affymetrix). For human (tumor) VegFa (VEGFA) expression, pre-manufactured TaqMan gene expression assays for human VegFa (Catalog #4331182, Assay ID: Hs00900055) and CycA (Part#: 4326316E) were used in biplex reactions in triplicate using TaqMan Gene Expression Master Mix (Life Technologies) or VeriQuest Probe Master Mix (Affymetrix). Quantitative PCR was performed by using a 7500 Fast or StepOnePlus Real-Time PCR system (Life Technologies). The ΔΔCT method was used to calculate relative gene expression.
RGD targeted HiF2α-RNAi trigger delivery polymer conjugates were formed using polymer 126, 100A, or 006. The RNAi trigger, μg indicates the quantity of trigger reacted with polymer. The polymer was modified with the indicated RGD mimic and PEG modifying agents as described above. Kidney RCC tumor-bearing mice were generated as described and treated with a single tail vein injection of isotonic glucose (G1) or the indicated Hif2α RNAi trigger-delivery polymer conjugate. Mice were euthanized 72 h (day 4) after injection and total RNA was prepared from kidney tumor using Trizol reagent following manufacturer's recommendation. Relative HiF2α mRNA levels were determined by RT-qPCR as described and compared to mice treated with delivery buffer (isotonic glucose) only (Table 11).

Q: With “AD01214 (antisense TUUCAUGAAAUCGUUACGUTT; sense ACGUAACGAUUUCAUGAAAT; Hif2alpha RNAi agent antisense strand; modified_base 2,4,6,8,10,12,14,16,18 /mod_base = “2′-deoxy-2′-fluoro corresponding nucleoside”; modified_base 3,5,7,9,11,13,15,17,19 /mod_base = “2′-O-methyl corresponding nucleoside”; modified_base 21 /mod_base = “5′-phosphorothioate corresponding nucleotide”; Hif2alpha RNAi agent sense strand; modified_base 1,3,5,7,9,11,13,15,17,19 /mod_base = “2′-deoxy-2′-fluoro corresponding nucleoside”; modified_base 2,4,6,8,10,12,14,16,18 /mod_base = “2′-O-methyl corresponding nucleoside”; modified_base 20 /mod_base = “3′-3′-linked nucleotide”; modified_base 1 /mo)” as the substance, how does the “Relative Expression day 4 (Hif2α mRNA in kidney tumor)” value ([1]; RNAi trigger 80 μg, polymer 126 400 μg) read?
A: 0.29

Q: What about the “Relative Expression day 4 (Hif2α mRNA in kidney tumor)” value ([1]; RNAi trigger 112.5 μg, polymer 006 300 μg) of the same substance?
A: 0.36

Q: And the “Relative Expression day 4 (Hif2α)” value ([2]; trigger 80 μg, polymer 126 280 μg, TFF, RGD-PEG8-HyNic 0.5×, PEG12-FCit-PABC-PNP)?
A: 0.489

Q: What about the “Relative Expression day 4 (Hif2α)” value ([2]; trigger 80 μg, polymer 126 280 μg, RGD-PEG8-ACit-PABC-PNP 0.4×, PEG6-ACit-PABC-PNP) of the same substance?
A: 0.360

Q: And the “Relative Expression day 4 (Hif2α)” value ([2]; trigger 80 μg, polymer 126 280 μg, RGD-PEG8-ACitFP-NHS 1×, PEG6-ACit-PABC-PNP)?
A: 0.288

Q: What about the “Relative Expression day 4 (Hif2α)” value ([2]; trigger 80 μg, polymer 126 280 μg, RGD-PEG8-HyNic 0.5×, PEG12-FCitFP-TFP) of the same substance?
A: 0.210

Q: And the “Relative Expression day 4 (Hif2α)” value ([2]; trigger 112.5 μg, polymer 006 300 μg, RGD-PEG8-HyNic, PEG12-ACit-PABC-PNP)?
A: 0.357

Q: And the “Relative Expression day 4 (Hif2α)” value ([2]; trigger 112.5 μg, polymer 100A 375 μg, TFF, RGD-PEG15-FCitFP-TFP 0.5×, no. 10.8, PEG12-ACit-PABC-PNP)?
A: 0.193

Q: What about the “Relative Expression day 4 (Hif2α)” value ([2]; trigger 112.5 μg, polymer 100A 375 μg, TFF, RGD-PEG15-FCitFP-TFP 1×, no. 16.1, PEG12-ACit-PABC-PNP) of the same substance?
A: 0.182

Q: What about the “Relative Expression day 4 (Hif2α)” value ([2]; trigger 112.5 μg, polymer 100A 375 μg, TFF, RGD-PEG15-FCitFP-TFP 2×, no. 29.0, PEG12-ACit-PABC-PNP) of the same substance?
A: 0.182

Q: What about the “Relative Expression day 4 (Hif2α)” value ([2]; trigger 112.5 μg, polymer 100A 375 μg, TFF, RGD-PEG19-FCitFP-TFP 0.5×, no. 10.7, PEG12-ACit-PABC-PNP) of the same substance?
A: 0.163

Q: And the “Relative Expression day 4 (Hif2α)” value ([2]; trigger 112.5 μg, polymer 100A 375 μg, TFF, RGD-PEG19-FCitFP-TFP 1×, no. 18.5, PEG12-ACit-PABC-PNP)?
A: 0.114

Q: And the “Relative Expression day 4 (Hif2α)” value ([2]; trigger 112.5 μg, polymer 100A 375 μg, TFF, RGD-PEG19-FCitFP-TFP 2×, no. 31.1, PEG12-ACit-PABC-PNP)?
A: 0.182

Q: What about the “Relative Expression day 4 (Hif2α)” value ([2]; trigger 112.5 μg, polymer 100A 375 μg, TFF, RGD-PEG20-FCitFP-TFP 0.125×, no. 1.9, PEG12-ACit-PABC-PNP) of the same substance?
A: 0.169

Q: What about the “Relative Expression day 4 (Hif2α)” value ([2]; trigger 112.5 μg, polymer 100A 375 μg, TFF, RGD-PEG20-FCitFP-TFP 0.25×, no. 3.4, PEG12-ACit-PABC-PNP) of the same substance?
A: 0.168

Q: What about the “Relative Expression day 4 (Hif2α)” value ([2]; trigger 112.5 μg, polymer 100A 375 μg, TFF, RGD-PEG20-FCitFP-TFP 0.5×, no. 6.6, PEG12-ACit-PABC-PNP) of the same substance?
A: 0.130

Q: What about the “Relative Expression day 4 (Hif2α)” value ([2]; trigger 112.5 μg, polymer 100A 375 μg, TFF, RGD-PEG20-FCitFP-TFP 1×, no. 12.7, PEG12-ACit-PABC-PNP) of the same substance?
A: 0.121

Q: What about the “Relative Expression day 4 (Hif2α)” value ([2]; trigger 112.5 μg, polymer 100A 375 μg, TFF, RGD-PEG20-FCitFP-TFP 1.5×, no. 20.3, PEG12-ACit-PABC-PNP) of the same substance?
A: 0.135

Q: And the “Relative Expression day 4 (Hif2α)” value ([2]; trigger 112.5 μg, polymer 100A 375 μg, RGD-PEG19-FCitFP-TFP 1×, PEG12-ACit-PABC-PNP)?
A: 0.195

Q: What about the “Relative Expression day 4 (Hif2α)” value ([2]; trigger 112.5 μg, polymer 100A 375 μg, RGD-PEG19-FCitFP-TFP 1×, PEG12-FCitFP-TFP) of the same substance?
A: 0.148 and 0.188

Q: And the “Relative Expression day 4 (Hif2α)” value ([2]; trigger 115 μg, polymer 100A 375 μg, RGD-PEG8-HyNic 0.5×, PEG12-FCitFP-TFP)?
A: 0.258
